Experimental data reported in PubChem BioAssay AID1963853 (Molecular Pharmacology Branch, DTP, NCI, 2024).

System: 266295-075-R-J1-PDC spheroid viability
Experiment: Anticancer human tumor 266295-075-R-J1-PDC patient-derived head and neck squamous carcinoma cell line growth inhibition [POLQ]
Settings: spheroids with HUVEC and MSC; for IC50: curve of first compound; for viability, T/C: stronger effect = lower value
Protocol: Multicellular complex tumor spheroid response to Polymerase (POL) inhibitors (novobiocin, ART-558, RP6685) in combination with a variety of drugs and investigational agents in selected tumor cell lines
The POL inhibitors (novobiocin, ART-558, and RP6685) were evaluated both individually and in combination with standard of care and investigational anticancer small molecules within a complex spheroid model of solid tumors. . Complex spheroids include a stromal component modeled by human endothelial cells (HUVEC) and fibroblasts modeled by human mesenchymal stem cells (MSCs). The concentration ranges selected for each drug and investigational agent were based upon clinically achievable concentrations if the clinical Cmax of the agent was known.
Compounds. The drugs and investigational agents: novobiocin (NSC847541), ART-558 (NSC835418), RP-6685 (NSC848927), peposertib (NSC802822), ceralasertib (NSC780249), elimusertib (NSC800525), camonsertib (NSC841442), AZD-1390 (NSC803789), olaparib (NSC753686), talazoparib (NSC767125), rucaparib (NSC756644), sotorasib (NSC818433), MRTX-1133 (NSC836407), SN-38 (NSC673596), topotecan (NSC609699), epotoside (NSC141540), doxorubicin (NSC123127), gemcitabine (NSC613327), 5-fluorouracil (NSC19893), paclitaxel (NSC125973), vemurafenib (NSC761431), MSA-2 (NSC828583), SN-011 (NSC837082), adavosertib (NSC754352), prexasertib (NSC758257), carboplatin (NSC241240) and oxaliplatin (NSC266046), were obtained from the National Cancer Institute (NCI) Developmental Therapeutics Program Chemical Repository (21). The FDA-approved anticancer drug set is available from the Developmental Therapeutics Program at https://dtp.cancer.gov/organization/dscb/obtaining/. […] The stock solutions were prepared in dimethyl sulfoxide (DMSO, Sigma-Aldrich, St. Louis, MO, cat. D2650), except for the platinum compounds which were prepared in saline (Quality Biological, Gaithersburg, MD, cat. 114-055-101), at 800-fold the tested concentration and stored at -70 degrees C prior to their use. All drugs and investigational agents were tested over a range starting from a high concentration at or near the clinical Cmax and decreasing in half-log increments. If the clinical Cmax for an agent had not been determined, the highest concentration tested was 10 microM, except for SN-38, which was tested at a high concentration of 1 microM.
Cell Culture. All cells were maintained in an incubator at 37 degrees C and 5% CO2 with 95% humidity. The PDC lines were cultured according to standard operating procedures established by the NCI PDMR (https://pdmr.cancer.gov). Table 3 of the manuscript, lists the cell lines along with the number of the three cell types plated to form the mct-spheroids and media for tumor cell growth. After thawing, all PDC lines, except 997537-175-T-J1-PDC and 415267-285-R-J2-PDC, were cultured in Matrigel-coated flasks prepared with a working solution of 1X Ham's F-12 nutrient mix, without supplementation (Thermo Fisher Scientific, cat. 11765054), 100 U/mL penicillin-streptomycin (Thermo Fisher Scientific, cat. 15140122), and 2.5% Matrigel (Corning Inc., Corning, NY, cat. 354248) for the first three passages. The two PDC lines 997537-175-T-J1-PDC and 415267-285-R-J2-PDC were cultured on uncoated flasks. The 857933-349-R-J2-PDC line was cultured in 6C/Colon 1B media containing advanced DMEM/F-12 (Thermo Fisher Scientific, cat. 12634028), 10 mM HEPES (Thermo Fisher Scientific, cat. 15630080), 1X GlutaMAX supplement (Thermo Fisher Scientific, cat. 35050061), 0.1 mg/mL primocin (InvivoGen, San Diego, CA, cat. ant-pm-2), 10% defined fetal bovine serum, heat inactivated (HyClone Laboratories Inc., Logan, UT, cat. SH30070.03HI), 50% L-WRN conditioned media (ATCC, cat. CRL-3276), 1.25 mM N-Acetyl-L-cysteine (Sigma-Aldrich, cat. A9165), 10 mM nicotinamide (Sigma-Aldrich, cat. N0636), 1X B-27 supplement (Thermo Fisher Scientific, cat. 17504044), 1X N-2 supplement (Thermo Fisher Scientific, cat. […]

[1] = second compound 0.0316 µM, first compound 0.0316 µM
[2] = second compound 0.0316 µM, first compound 0.1 µM
[3] = second compound 0.0316 µM, first compound 0.316 µM
[4] = second compound 0.0316 µM, first compound 1 µM
[5] = second compound 0.0316 µM, first compound 3.16 µM
[6] = second compound 0.0316 µM, first compound 10 µM
[7] = second compound 0.1 µM, first compound 0.0316 µM
[8] = second compound 0.1 µM, first compound 0.1 µM
[9] = second compound 0.1 µM, first compound 0.316 µM
[10] = second compound 0.1 µM, first compound 1 µM
[11] = second compound 0.1 µM, first compound 3.16 µM
[12] = second compound 0.1 µM, first compound 10 µM
[13] = second compound 0.316 µM, first compound 0.0316 µM
[14] = second compound 0.316 µM, first compound 0.1 µM
[15] = second compound 0.316 µM, first compound 0.316 µM
[16] = second compound 0.316 µM, first compound 1 µM
[17] = second compound 0.316 µM, first compound 3.16 µM
[18] = second compound 0.316 µM, first compound 10 µM
[19] = second compound 1 µM, first compound 0.0316 µM
[20] = second compound 1 µM, first compound 0.1 µM
[21] = second compound 1 µM, first compound 0.316 µM
[22] = second compound 1 µM, first compound 1 µM
[23] = second compound 1 µM, first compound 3.16 µM
[24] = second compound 1 µM, first compound 10 µM
[25] = second compound 3.16 µM, first compound 0.0316 µM
[26] = second compound 3.16 µM, first compound 0.1 µM
[27] = second compound 3.16 µM, first compound 0.316 µM
[28] = second compound 3.16 µM, first compound 1 µM
[29] = second compound 3.16 µM, first compound 3.16 µM
[30] = second compound 3.16 µM, first compound 10 µM
[31] = second compound 10 µM, first compound 0.0316 µM
[32] = second compound 10 µM, first compound 0.1 µM
[33] = second compound 10 µM, first compound 0.316 µM
[34] = second compound 10 µM, first compound 1 µM
[35] = second compound 10 µM, first compound 3.16 µM
[36] = second compound 10 µM, first compound 10 µM
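Further: spheroids exposed to compounds for seven days before readout.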

CCc1cc2c(N3CCc4c(cc(Cn5ccnc5)cc4-c4cn(C)nc4C(F)(F)F)C3=O)cc(C)nc2c(OC)n1 + Cc1cccc(N(C)C(=O)C2C(O)CCN2c2nc(C)cc(C(F)(F)F)c2C#N)c1
IC50 (second compound 0.0316 µM): > 10 µM
IC50 (second compound 0.1 µM): > 10 µM
IC50 (second compound 0.316 µM): > 10 µM
IC50 (second compound 1 µM): > 10 µM
IC50 (second compound 3.16 µM): > 10 µM
IC50 (second compound 10 µM): > 10 µM
viability, T/C [1]: 72.8%
viability, T/C [2]: 89%
viability, T/C [3]: 81.6%
viability, T/C [4]: 111%
viability, T/C [5]: 130%
viability, T/C [6]: 120%
viability, T/C [7]: 102%
viability, T/C [8]: 90.4%
viability, T/C [9]: 101%
viability, T/C [10]: 110%
viability, T/C [11]: 89.3%
viability, T/C [12]: 114%
viability, T/C [13]: 97.7%
viability, T/C [14]: 105%
viability, T/C [15]: 102%
viability, T/C [16]: 122%
viability, T/C [17]: 131%
viability, T/C [18]: 123%
viability, T/C [19]: 87.1%
viability, T/C [20]: 88.4%
viability, T/C [21]: 102%
viability, T/C [22]: 98.5%
viability, T/C [23]: 135%
viability, T/C [24]: 121%
viability, T/C [25]: 83.7%
viability, T/C [26]: 102%
viability, T/C [27]: 117%
viability, T/C [28]: 109%
viability, T/C [29]: 138%
viability, T/C [30]: 137%
viability, T/C [31]: 101%
viability, T/C [32]: 93.2%
viability, T/C [33]: 111%
viability, T/C [34]: 127%
viability, T/C [35]: 122%
viability, T/C [36]: 145%

Nc1ccn(C2OC(CO)C(O)C2(F)F)c(=O)n1 (stereo not drawn) + Cc1cccc(N(C)C(=O)C2C(O)CCN2c2nc(C)cc(C(F)(F)F)c2C#N)c1
IC50 (second compound 0.0316 µM): > 10 µM
IC50 (second compound 0.1 µM): > 10 µM
IC50 (second compound 0.316 µM): > 10 µM
IC50 (second compound 1 µM): > 10 µM
IC50 (second compound 3.16 µM): > 10 µM
IC50 (second compound 10 µM): > 10 µM
viability, T/C [1]: 93.5%
viability, T/C [2]: 81.9%
viability, T/C [3]: 81.5%
viability, T/C [4]: 68.3%
viability, T/C [5]: 79.5%
viability, T/C [6]: 69.4%
viability, T/C [7]: 85.8%
viability, T/C [8]: 93%
viability, T/C [9]: 79.6%
viability, T/C [10]: 76%
viability, T/C [11]: 83.3%
viability, T/C [12]: 73.7%
viability, T/C [13]: 87.8%
viability, T/C [14]: 78.5%
viability, T/C [15]: 77%
viability, T/C [16]: 94.9%
viability, T/C [17]: 76.6%
viability, T/C [18]: 72.4%
viability, T/C [19]: 99.8%
viability, T/C [20]: 82.8%
viability, T/C [21]: 86%
viability, T/C [22]: 84.7%
viability, T/C [23]: 80.8%
viability, T/C [24]: 80.2%
viability, T/C [25]: 90.6%
viability, T/C [26]: 96.9%
viability, T/C [27]: 72.8%
viability, T/C [28]: 78.1%
viability, T/C [29]: 91%
viability, T/C [30]: 67.1%
viability, T/C [31]: 86.8%
viability, T/C [32]: 88.4%
viability, T/C [33]: 72%
viability, T/C [34]: 75.1%
viability, T/C [35]: 82.1%
viability, T/C [36]: 68.2%

O=c1[nH]cc(F)c(=O)[nH]1 + Cc1cccc(N(C)C(=O)C2C(O)CCN2c2nc(C)cc(C(F)(F)F)c2C#N)c1
IC50 (second compound 0.0316 µM): > 10 µM
IC50 (second compound 0.1 µM): > 10 µM
IC50 (second compound 0.316 µM): > 10 µM
IC50 (second compound 1 µM): > 10 µM
IC50 (second compound 3.16 µM): > 10 µM
IC50 (second compound 10 µM): > 10 µM
viability, T/C [1]: 87.9%
viability, T/C [2]: 81%
viability, T/C [3]: 101%
viability, T/C [4]: 92.1%
viability, T/C [5]: 77.8%
viability, T/C [6]: 85.1%
viability, T/C [7]: 120%
viability, T/C [8]: 87.6%
viability, T/C [9]: 84.3%
viability, T/C [10]: 99.7%
viability, T/C [11]: 104%
viability, T/C [12]: 83.1%
viability, T/C [13]: 77.2%
viability, T/C [14]: 99.8%
viability, T/C [15]: 90.6%
viability, T/C [16]: 92.6%
viability, T/C [17]: 92.4%
viability, T/C [18]: 63.5%
viability, T/C [19]: 98.5%
viability, T/C [20]: 97.9%
viability, T/C [21]: 95.2%
viability, T/C [22]: 97.7%
viability, T/C [23]: 99.5%
viability, T/C [24]: 96.9%
viability, T/C [25]: 105%
viability, T/C [26]: 98.9%
viability, T/C [27]: 102%
viability, T/C [28]: 136%
viability, T/C [29]: 95.4%
viability, T/C [30]: 73.8%
viability, T/C [31]: 89.8%
viability, T/C [32]: 96.8%
viability, T/C [33]: 110%
viability, T/C [34]: 94.3%
viability, T/C [35]: 92.9%
viability, T/C [36]: 71.6%

COc1cc(C2c3cc4c(cc3C(OC3OC5COC(C)OC5C(O)C3O)C3COC(=O)C23)OCO4)cc(OC)c1O (stereo not drawn) + Nc1ccc(C#CCN(C(=O)Cc2ncc(C(F)(F)F)cc2C(F)(F)F)c2ccc(F)cc2)nn1
IC50 (second compound 0.0316 µM): > 10 µM
IC50 (second compound 0.1 µM): > 10 µM
IC50 (second compound 0.316 µM): > 10 µM
IC50 (second compound 1 µM): > 10 µM
IC50 (second compound 3.16 µM): > 10 µM
IC50 (second compound 10 µM): > 10 µM
viability, T/C [1]: 81.1%
viability, T/C [2]: 103%
viability, T/C [3]: 77.6%
viability, T/C [4]: 94.4%
viability, T/C [5]: 98.9%
viability, T/C [6]: 82.8%
viability, T/C [7]: 84.1%
viability, T/C [8]: 97%
viability, T/C [9]: 103%
viability, T/C [10]: 97.4%
viability, T/C [11]: 111%
viability, T/C [12]: 80.1%
viability, T/C [13]: 97%
viability, T/C [14]: 127%
viability, T/C [15]: 82.2%
viability, T/C [16]: 90.7%
viability, T/C [17]: 94.9%
viability, T/C [18]: 90.6%
viability, T/C [19]: 104%
viability, T/C [20]: 94.1%
viability, T/C [21]: 92.3%
viability, T/C [22]: 96.4%
viability, T/C [23]: 92.3%
viability, T/C [24]: 88.8%
viability, T/C [25]: 75.9%
viability, T/C [26]: 118%
viability, T/C [27]: 84.8%
viability, T/C [28]: 93.2%
viability, T/C [29]: 107%
viability, T/C [30]: 90.5%
viability, T/C [31]: 90.8%
viability, T/C [32]: 92.9%
viability, T/C [33]: 95.2%
viability, T/C [34]: 81.2%
viability, T/C [35]: 95.8%
viability, T/C [36]: 77.1%
